Laboratory results reported in PubChem BioAssay AID276 (DTP/NCI, 2004).
Inconclusive results and toxic doses are left out. Positions of bridges follow the written chain, without caps; N, C: chain ends. Residues, ends and D or L forms follow the SMILES beside them.

System: B6C3F1 mice, Lewis lung carcinoma iv, survival T/C
Experiment: NCI In Vivo Anticancer Drug Screen. Data for tumor model Lewis Lung Carcinoma (intravenous) in B6C3F1 mice
Conditions: endpoint: median survival time, higher = longer survival
Experimental: The antitumor activity of compounds was measured in mice bearing transplantable tumors. Survival or tumor size were measured and the results are expressed as the measurement made in the treated group (T) divided by the measurement made in the vehicle treated control group (C). The tumor model used in this assay is Lewis Lung Carcinoma (intravenous) in B6C3F1 mice

[1] = dose: 1.5 mg/kg/injection, schedule: Q01DX009 (ip), vehicle: saline
[2] = dose: 3.0 mg/kg/injection, schedule: Q01DX009 (ip), vehicle: saline
[3] = dose: 6.0 mg/kg/injection, schedule: Q01DX009 (ip), vehicle: saline
[4] = dose: 12.0 mg/kg/injection, schedule: Q01DX009 (ip), vehicle: saline
[5] = dose: 25.0 mg/kg/injection, schedule: Q01DX009 (ip), vehicle: saline with Tween-80
[6] = dose: 12.5 mg/kg/injection, schedule: Q01DX009 (ip), vehicle: saline with Tween-80
[7] = dose: 50.0 mg/kg/injection, schedule: Q01DX009 (ip), vehicle: saline with Tween-80
[8] = dose: 12.5 mg/kg/injection, schedule: Q01DX009 (ip), vehicle: saline
[9] = dose: 25.0 mg/kg/injection, schedule: Q01DX009 (ip), vehicle: saline
[10] = dose: 50.0 mg/kg/injection, schedule: Q01DX009 (ip), vehicle: saline
[11] = dose: 100.0 mg/kg/injection, schedule: Q01DX009 (ip), vehicle: saline
[12] = dose: 100.0 mg/kg/injection, schedule: Q01DX009 (ip), vehicle: saline with Tween-80
[13] = dose: 200.0 mg/kg/injection, schedule: Q01DX009 (ip), vehicle: saline with Tween-80
[14] = dose: 400.0 mg/kg/injection, schedule: Q01DX009 (ip), vehicle: saline with Tween-80
[15] = dose: 6.25 mg/kg/injection, schedule: Q01DX009 (ip), vehicle: saline with Tween-80

For `NC(=O)c1ccc(N)nc1`, the T/C (dose: 0.5 mg/kg/injection, schedule: Q01DX009 (ip), vehicle: saline) was 115 % of control and the T/C (dose: 1.0 mg/kg/injection, schedule: Q01DX009 (ip), vehicle: saline) was 115 % of control.

For `O=C(C1CO1)C(Cl)(Cl)Cl` (configuration not stated), the T/C [1] was 95 % of control, the T/C [2] was 92 % of control and the T/C [3] was 97 % of control. For the same compound, the T/C [4] was 95 % of control and the T/C [5] was 108 % of control.

In the case of `N#C[Se-].c1ccc([Te+](c2ccccc2)c2ccccc2)cc1`, the T/C (dose: 1.56 mg/kg/injection, schedule: Q01DX009 (ip), vehicle: Klucel (hydroxypropylcellulose) (HPC)) is reported as 97 % of control, the T/C (dose: 3.12 mg/kg/injection, schedule: Q01DX009 (ip), vehicle: Klucel (hydroxypropylcellulose) (HPC)) is reported as 97 % of control and the T/C (dose: 6.25 mg/kg/injection, schedule: Q01DX009 (ip), vehicle: Klucel (hydroxypropylcellulose) (HPC)) is reported as 97 % of control. For the same compound, the T/C (dose: 12.5 mg/kg/injection, schedule: Q01DX009 (ip), vehicle: Klucel (hydroxypropylcellulose) (HPC)) was 100 % of control and the T/C (dose: 25.0 mg/kg/injection, schedule: Q01DX009 (ip), vehicle: Klucel (hydroxypropylcellulose) (HPC)) was 86 % of control.

With `[Na+]` the T/C (dose: 50.0 mg/kg/injection, schedule: Q01DX009 (ip), vehicle: water) was 102 % of control, the T/C (dose: 100.0 mg/kg/injection, schedule: Q01DX009 (ip), vehicle: water) was 99 % of control and the T/C (dose: 200.0 mg/kg/injection, schedule: Q01DX009 (ip), vehicle: water) was 95 % of control. For the same compound, the T/C (dose: 400.0 mg/kg/injection, schedule: Q01DX009 (ip), vehicle: water) was 94 % of control and the T/C (dose: 800.0 mg/kg/injection, schedule: Q01DX009 (ip), vehicle: water) was 108 % of control.

For `CCN(CC)Cc1cc2[nH]c3c4ccc(Cl)cc4ncc3c2cc1OC`, the T/C [6] was 97 % of control, the T/C [5] was 101 % of control and the T/C [7] was 101 % of control.

`CS(=O)(=O)CS(=O)(=O)OCCCl` was tested, and the T/C [8] was 107 % of control, the T/C [9] was 120 % of control and the T/C [10] was 284 % of control. For the same compound, the T/C [11] was 239 % of control.

For `CN(C)c1ccc2c(SCC(=O)OCC(=O)[C@@]3(O)CC[C@H]4[C@@H]5CCC6=CC(=O)C=C[C@]6(C)[C@H]5C(=O)C[C@@]43C)c3ccc(N(C)C)cc3nc2c1`, the T/C (dose: 200.0 mg/kg/injection, schedule: Q01DX009 (ip), vehicle: Klucel (hydroxypropylcellulose) (HPC)) was 94 % of control, the T/C (dose: 400.0 mg/kg/injection, schedule: Q01DX009 (ip), vehicle: Klucel (hydroxypropylcellulose) (HPC)) was 99 % of control and the T/C (dose: 800.0 mg/kg/injection, schedule: Q01DX009 (ip), vehicle: Klucel (hydroxypropylcellulose) (HPC)) was 101 % of control.

`COc1cc(C(=O)N/N=C/c2cccc([N+](=O)[O-])c2)cc(OC)c1OC` was tested, and the T/C [5] was 97 % of control, the T/C [7] was 98 % of control and the T/C [12] was 105 % of control. The T/C [13] was 93 % of control and the T/C [14] was 101 % of control.

With `O=C(CCCN1CCC(C(O)c2ccc(F)cc2)CC1)c1ccc(F)cc1` (configuration not stated) the T/C (dose: 3.12 mg/kg/injection, schedule: Q01DX009 (ip), vehicle: saline with Tween-80) was 102 % of control, the T/C [15] was 101 % of control and the T/C [6] was 105 % of control.

For `c1nc(N2CC2)c2cnn(C3CCCCO3)c2n1` (configuration not stated), the T/C [7] was 103 % of control, the T/C [12] was 107 % of control and the T/C [13] was 112 % of control.

In the case of `CC[C@@]1(O)C(=O)OCc2c1cc1n(c2=O)Cc2cc3cc(O)ccc3nc2-1`, the T/C (dose: 0.18 mg/kg/injection, schedule: Q01DX009 (ip), vehicle: saline) is reported as 106 % of control, the T/C (dose: 0.37 mg/kg/injection, schedule: Q01DX009 (ip), vehicle: saline) is reported as 104 % of control and the T/C (dose: 0.75 mg/kg/injection, schedule: Q01DX009 (ip), vehicle: saline) is reported as 102 % of control. For the same compound, the T/C [1] was 103 % of control and the T/C [2] was 110 % of control.

With `Nc1nc(N)c2cc(S(=O)(=O)c3ccccc3)ccc2n1` the T/C [5] was 98 % of control, the T/C [7] was 98 % of control and the T/C [12] was 99 % of control.

In the case of `CCC(C)C1NC(=O)C(CC(C)C)NC(=O)C(C(C)C)NC(=O)C2CSSCC(NC1=O)C(=O)N2` (configuration not stated) (cyclo(CCVLI); disulfide 1-2; configuration not given here), the T/C (dose: 31.25 micrograms/kg/injection, schedule: Q01DX009 (ip), vehicle: Klucel (hydroxypropylcellulose) (HPC)) is reported as 93 % of control, the T/C (dose: 62.5 micrograms/kg/injection, schedule: Q01DX009 (ip), vehicle: Klucel (hydroxypropylcellulose) (HPC)) is reported as 99 % of control and the T/C (dose: 125.0 micrograms/kg/injection, schedule: Q01DX009 (ip), vehicle: Klucel (hydroxypropylcellulose) (HPC)) is reported as 93 % of control. For the same compound, the T/C (dose: 250.0 micrograms/kg/injection, schedule: Q01DX009 (ip), vehicle: Klucel (hydroxypropylcellulose) (HPC)) was 98 % of control, the T/C (dose: 500.0 micrograms/kg/injection, schedule: Q01DX009 (ip), vehicle: Klucel (hydroxypropylcellulose) (HPC)) was 88 % of control and the T/C (dose: 1000.0 micrograms/kg/injection, schedule: Q01DX009 (ip), vehicle: Klucel (hydroxypropylcellulose) (HPC)) was 100 % of control.

With `O=C1SC(c2ccccc2)=S=C1c1ccccc1` the T/C [5] was 100 % of control, the T/C [7] was 93 % of control and the T/C [12] was 95 % of control. The T/C [13] was 104 % of control and the T/C [14] was 108 % of control.

`CCCCCCCCCCCCCCC/C([O-])=N/[N+](C)(C)CC(C)O` (configuration not stated) was tested, and the T/C (dose: 25.0 mg/kg/injection, schedule: Q01DX001 (ip), vehicle: saline) was 91 % of control, the T/C (dose: 50.0 mg/kg/injection, schedule: Q01DX001 (ip), vehicle: saline) was 88 % of control and the T/C (dose: 100.0 mg/kg/injection, schedule: Q01DX001 (ip), vehicle: saline) was 87 % of control. The T/C (dose: 200.0 mg/kg/injection, schedule: Q01DX001 (ip), vehicle: saline) was 95 % of control.

`CSc1ncnc2c1ncn2C1OC(CO)C(O)C1O` (configuration not stated) was tested, and the T/C (dose: 3.12 mg/kg/injection, schedule: Q01DX009 (ip), vehicle: saline + alcohol) was 96 % of control, the T/C (dose: 6.25 mg/kg/injection, schedule: Q01DX009 (ip), vehicle: saline + alcohol) was 97 % of control and the T/C (dose: 12.5 mg/kg/injection, schedule: Q01DX009 (ip), vehicle: saline + alcohol) was 100 % of control. For the same compound, the T/C (dose: 25.0 mg/kg/injection, schedule: Q01DX009 (ip), vehicle: saline + alcohol) was 105 % of control and the T/C (dose: 50.0 mg/kg/injection, schedule: Q01DX009 (ip), vehicle: saline + alcohol) was 117 % of control.

With `CCN(CC)CC[n+]1ccc2c(C)c3[nH]c4ccc(O)cc4c3c(C)c2c1` the T/C (dose: 1.56 mg/kg/injection, schedule: Q01DX009 (ip), vehicle: saline) was 95 % of control, the T/C (dose: 1.56 mg/kg/injection, schedule: Q01DX009 (ip), vehicle: suspension in saline) was 106 % of control and the T/C (dose: 3.12 mg/kg/injection, schedule: Q01DX009 (ip), vehicle: saline) was 100 % of control. The T/C (dose: 3.12 mg/kg/injection, schedule: Q01DX009 (ip), vehicle: suspension in saline) was 100 % of control, the T/C (dose: 6.25 mg/kg/injection, schedule: Q01DX009 (ip), vehicle: saline) was 106 % of control and the T/C (dose: 6.25 mg/kg/injection, schedule: Q01DX009 (ip), vehicle: suspension in saline) was 116 % of control. For the same compound, the T/C [8] was 98 % of control.

`CCCCCCCC(=O)N/N=C(\CO)[C@]1(O)Cc2c(O)c3c(c(O)c2[C@@H](OC2CC(N)C(O)C(C)O2)C1)C(=O)c1c(OC)cccc1C3=O` (some centres not stated) was tested, and the T/C [1] was 100 % of control, the T/C (dose: 1.5 mg/kg/injection, schedule: Q01DX009 (ip), vehicle: water) was 108 % of control and the T/C [2] was 102 % of control. For the same compound, the T/C (dose: 3.0 mg/kg/injection, schedule: Q01DX009 (ip), vehicle: water) was 104 % of control, the T/C [3] was 105 % of control and the T/C (dose: 6.0 mg/kg/injection, schedule: Q01DX009 (ip), vehicle: water) was 99 % of control. For the same compound, the T/C [4] was 112 % of control, the T/C (dose: 12.0 mg/kg/injection, schedule: Q01DX009 (ip), vehicle: water) was 92 % of control and the T/C (dose: 24.0 mg/kg/injection, schedule: Q01DX009 (ip), vehicle: saline) was 87 % of control.

For `COC(=O)c1ccoc1`, the T/C [8] was 100 % of control, the T/C [9] was 111 % of control and the T/C [10] was 97 % of control. The T/C [11] was 108 % of control and the T/C (dose: 200.0 mg/kg/injection, schedule: Q01DX009 (ip), vehicle: saline) was 117 % of control.

In the case of `COc1cc2cc[n+](C)c(Cc3ccccc3)c2cc1OC`, the T/C (dose: 3.13 mg/kg/injection, schedule: Q01DX009 (ip), vehicle: saline with Tween-80) is reported as 112 % of control, the T/C [15] is reported as 120 % of control and the T/C [6] is reported as 96 % of control. The T/C [5] was 99 % of control and the T/C [7] was 91 % of control.
